From PubChem BioAssay AID1919009 (Molecular Pharmacology Branch, DTP, NCI, 2023)

Test system: K24384-001-R-PDC complex spheroid growth
Experiment: Anticancer human tumor K24384-001-R-PDC patient-derived pancreatic adenocarcinoma cell line growth inhibition [AhR]
Details: for IC50: curve of first compound; for viability, T/C: stronger effect = lower value
How it was run: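 Complex tumor spheroids co-cultured with HUVEC and human MSC stroma; AhR antagonists tested in combination with standard-of-care and investigational agents. Top concentration at or near clinical Cmax (else 10 microM), half-log dilutions; growth expressed as percent test/control.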

[1] = second compound 0.1 µM, first compound 0.0316 µM
[2] = second compound 0.1 µM, first compound 0.1 µM
[3] = second compound 0.316 µM, first compound 0.0316 µM
[4] = second compound 0.316 µM, first compound 0.1 µM
[5] = second compound 1 µM, first compound 0.0316 µM
[6] = second compound 1 µM, first compound 0.1 µM
[7] = second compound 3.16 µM, first compound 0.0316 µM
[8] = second compound 3.16 µM, first compound 0.1 µM
[9] = second compound 10 µM, first compound 0.0316 µM
[10] = second compound 10 µM, first compound 0.1 µM
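Throughout, for viability, T/C: percent of DMSO vehicle-treated spheroid viability set as 100%.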

## CC1(C)CCC(CN2CCN(c3ccc(C(=O)NS(=O)(=O)c4ccc(NCC5CCOCC5)c([N+](=O)[O-])c4)c(Oc4cnc5[nH]ccc5c4)c3)CC2)=C(c2ccc(Cl)cc2)C1 + Cc1ccccc1N=Nc1ccc(NC(=O)c2ccnn2C)c(C)c1
Second compound 0.1 µM
  IC50: > 10 µM
Second compound 0.316 µM
  IC50: > 10 µM
Second compound 1 µM
  IC50: 9.66 µM
Second compound 3.16 µM
  IC50: 9.75 µM
Second compound 10 µM
  IC50: > 10 µM
[1]
  viability, T/C: 111%
[2]
  viability, T/C: 119%
Second compound 0.1 µM, first compound 0.316 µM
  viability, T/C: 113%
Second compound 0.1 µM, first compound 1 µM
  viability, T/C: 102%
Second compound 0.1 µM, first compound 3.16 µM
  viability, T/C: 86.5%
Second compound 0.1 µM, first compound 10 µM
  viability, T/C: 52.3%
[3]
  viability, T/C: 123%
[4]
  viability, T/C: 112%
Second compound 0.316 µM, first compound 0.316 µM
  viability, T/C: 132%
Second compound 0.316 µM, first compound 1 µM
  viability, T/C: 114%
Second compound 0.316 µM, first compound 3.16 µM
  viability, T/C: 118%
Second compound 0.316 µM, first compound 10 µM
  viability, T/C: 51.7%
[5]
  viability, T/C: 108%
[6]
  viability, T/C: 102%
Second compound 1 µM, first compound 0.316 µM
  viability, T/C: 122%
Second compound 1 µM, first compound 1 µM
  viability, T/C: 112%
Second compound 1 µM, first compound 3.16 µM
  viability, T/C: 114%
Second compound 1 µM, first compound 10 µM
  viability, T/C: 48.1%
[7]
  viability, T/C: 111%
[8]
  viability, T/C: 107%
Second compound 3.16 µM, first compound 0.316 µM
  viability, T/C: 114%
Second compound 3.16 µM, first compound 1 µM
  viability, T/C: 112%
Second compound 3.16 µM, first compound 3.16 µM
  viability, T/C: 112%
Second compound 3.16 µM, first compound 10 µM
  viability, T/C: 48.5%
[9]
  viability, T/C: 116%
[10]
  viability, T/C: 147%
Second compound 10 µM, first compound 0.316 µM
  viability, T/C: 131%
Second compound 10 µM, first compound 1 µM
  viability, T/C: 129%
Second compound 10 µM, first compound 3.16 µM
  viability, T/C: 111%
Second compound 10 µM, first compound 10 µM
  viability, T/C: 57.8%

## Cn1ncnc1C1c2n[nH]c(=O)c3cc(F)cc(c23)NC1c1ccc(F)cc1 (stereo not given) + Cc1ccccc1N=Nc1ccc(NC(=O)c2ccnn2C)c(C)c1
Second compound 0.1 µM
  IC50: > 0.1 µM
Second compound 0.316 µM
  IC50: > 0.1 µM
Second compound 1 µM
  IC50: > 0.1 µM
Second compound 3.16 µM
  IC50: > 0.1 µM
Second compound 10 µM
  IC50: > 0.1 µM
Second compound 0.1 µM, first compound 0.000316 µM
  viability, T/C: 100%
Second compound 0.1 µM, first compound 0.001 µM
  viability, T/C: 110%
Second compound 0.1 µM, first compound 0.00316 µM
  viability, T/C: 110%
Second compound 0.1 µM, first compound 0.01 µM
  viability, T/C: 98.2%
[1]
  viability, T/C: 79%
[2]
  viability, T/C: 96.7%
Second compound 0.316 µM, first compound 0.000316 µM
  viability, T/C: 104%
Second compound 0.316 µM, first compound 0.001 µM
  viability, T/C: 112%
Second compound 0.316 µM, first compound 0.00316 µM
  viability, T/C: 75.8%
Second compound 0.316 µM, first compound 0.01 µM
  viability, T/C: 74.3%
[3]
  viability, T/C: 67.1%
[4]
  viability, T/C: 73.5%
Second compound 1 µM, first compound 0.000316 µM
  viability, T/C: 98.2%
Second compound 1 µM, first compound 0.001 µM
  viability, T/C: 84.3%
Second compound 1 µM, first compound 0.00316 µM
  viability, T/C: 73.3%
Second compound 1 µM, first compound 0.01 µM
  viability, T/C: 72.8%
[5]
  viability, T/C: 66.3%
[6]
  viability, T/C: 66%
Second compound 3.16 µM, first compound 0.000316 µM
  viability, T/C: 86.9%
Second compound 3.16 µM, first compound 0.001 µM
  viability, T/C: 87.8%
Second compound 3.16 µM, first compound 0.00316 µM
  viability, T/C: 87.6%
Second compound 3.16 µM, first compound 0.01 µM
  viability, T/C: 67.4%
[7]
  viability, T/C: 65.6%
[8]
  viability, T/C: 62.8%
Second compound 10 µM, first compound 0.000316 µM
  viability, T/C: 91.8%
Second compound 10 µM, first compound 0.001 µM
  viability, T/C: 84%
Second compound 10 µM, first compound 0.00316 µM
  viability, T/C: 102%
Second compound 10 µM, first compound 0.01 µM
  viability, T/C: 86%
[9]
  viability, T/C: 82.3%
[10]
  viability, T/C: 66.2%
